What all share (experiment): relative viability (nuclei count vs DMSO), 5 days (fraction); higher = more cells survive
Compound in assay [1]: C[C@@H](Oc1cc(-c2cnn(C3CCNCC3)c2)cnc1N)c1c(Cl)ccc(F)c1Cl [Crizotinib] + O=C(CCCCCCC(=O)Nc1ccccc1)NO [Vorinostat] (partner 1 µM)
The gist of the method:
(§1)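 For relative viability, nuclei counts in treated wells were divided by those in vehicle wells. Lung cancer cell lines had been pin-tool dosed in 1536-well plates the day after seeding and cultured for 5 days, then fixed and stained in one step (final 0.05% Triton X-100, 1% formaldehyde, 1 ug/ml Hoechst) and imaged at 4×. Doses were one drug alone or a fixed anchor-drug dose plus five library-drug doses (not always all listed) in √10 steps, and values are duplicate-plate medians.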

Compound in assay [2]: O=C(c1cc(Cc2n[nH]c(=O)c3ccccc23)ccc1F)N1CCN(C(=O)C2CC2)CC1 [Olaparib] + CCNC(=O)c1noc(-c2cc(C(C)C)c(O)cc2O)c1-c1ccc(CN2CCOCC2)cc1 [Luminespib] (partner 0.01 µM)
A digest of the protocol: as §1

Compound in assay [3]: CC(C)C[C@H](NC(=O)[C@H](CCc1ccccc1)NC(=O)CN1CCOCC1)C(=O)N[C@@H](Cc1ccccc1)C(=O)N[C@@H](CC(C)C)C(=O)[C@@]1(C)CO1 [Carfilzomib] + CC1(C)CCC(c2ccc(Cl)cc2)=C(CN2CCN(c3ccc(C(=O)NS(=O)(=O)c4ccc(N[C@H](CCN5CCOCC5)CSc5ccccc5)c(S(=O)(=O)C(F)(F)F)c4)cc3)CC2)C1 [Navitoclax] (partner 0.5 µM)
The gist of the method:
as §1

Compound in assay [4]: C[C@@H](Oc1cc(-c2cnn(C3CCNCC3)c2)cnc1N)c1c(Cl)ccc(F)c1Cl [Crizotinib] + CS(=O)(=O)N1CCN(Cc2cc3nc(-c4cccc5[nH]ncc45)nc(N4CCOCC4)c3s2)CC1 [Pictilisib] (partner 1 µM)
The gist of the method: as §1

For twelve cell lines, relative viability results are on record in the supplement of paper PMC10307832.

In the case of NCI-H2342, the relative viability in assay [1] (first compound 0.01 µM) was 0.799; in assay [1] (first compound 0.03162 µM) it was 0.844; in assay [1] (first compound 0.1 µM), 0.714; in assay [1] (first compound 0.3162 µM) it was 0.713; in assay [1] (first compound 1 µM), 0.814; in assay [2] (first compound 0.08 µM) it was 0.685. The relative viability stood at 0.561 in assay [2] (first compound 0.253 µM), 0.712 in assay [2] (first compound 2.53 µM) and 0.649 in assay [2] (first compound 8 µM).

Consider NCI-H522, for which the relative viability in assay [1] (first compound 0.01 µM) came out at 0.851; in assay [1] (first compound 0.03162 µM) it was 1.03; in assay [1] (first compound 0.1 µM), 0.803; in assay [1] (first compound 0.3162 µM), 0.877; in assay [1] (first compound 1 µM) it was 0.867; in assay [2] (first compound 0.08 µM), 1.23. Moreover, the relative viability in assay [2] (first compound 0.253 µM) was determined as 1.09; in assay [2] (first compound 2.53 µM), 0.781; in assay [2] (first compound 8 µM), 0.824.

Consider NCI-H1623, for which the relative viability was found to be 0.492 in assay [2] (first compound 0.08 µM), 0.484 in assay [2] (first compound 0.253 µM), 0.384 in assay [2] (first compound 2.53 µM) and 0.331 in assay [2] (first compound 8 µM).

SW 900: the relative viability amounted to 0.422 in assay [1] (first compound 0.01 µM); 0.615 in assay [1] (first compound 0.03162 µM); 0.511 in assay [1] (first compound 0.1 µM); 0.481 in assay [1] (first compound 0.3162 µM); 0.712 in assay [1] (first compound 1 µM); 0.171 in assay [2] (first compound 0.08 µM). In addition, the relative viability is 0.17 in assay [2] (first compound 0.253 µM), 0.184 in assay [2] (first compound 2.53 µM) and 0.197 in assay [2] (first compound 8 µM).

On to NCI-H1299, for which the relative viability came out at 1.08 in assay [3] (first compound 0.001 µM); 1.05 in assay [3] (first compound 0.003162 µM); 1.03 in assay [3] (first compound 0.01 µM); 0.887 in assay [3] (first compound 0.03162 µM); 0.195 in assay [3] (first compound 0.1 µM); 0.827 in assay [4] (first compound 0.01 µM). Also, the relative viability amounted to 0.647 in assay [4] (first compound 0.03162 µM), 0.728 in assay [4] (first compound 0.1 µM), 0.718 in assay [4] (first compound 0.3162 µM) and 0.909 in assay [4] (first compound 1 µM).

For NCI-H358, the relative viability in assay [4] (first compound 0.01 µM) came to 0.338; in assay [4] (first compound 0.03162 µM) it was 0.354; in assay [4] (first compound 0.1 µM), 0.35; in assay [4] (first compound 0.3162 µM), 0.27; in assay [4] (first compound 1 µM), 0.325; in assay [1] (first compound 0.01 µM), 0.793. In addition, the relative viability is 0.658 in assay [1] (first compound 0.03162 µM); 0.718 in assay [1] (first compound 0.1 µM); 0.725 in assay [1] (first compound 0.3162 µM); 0.697 in assay [1] (first compound 1 µM); 0.324 in assay [2] (first compound 0.08 µM); 0.253 in assay [2] (first compound 0.253 µM). Further, the relative viability in assay [2] (first compound 2.53 µM) amounted to 0.24; in assay [2] (first compound 8 µM) it was 0.206.

As to ABC-1, the relative viability in assay [4] (first compound 0.01 µM) was found to be 0.54; in assay [4] (first compound 0.03162 µM) it was 0.781; in assay [4] (first compound 0.1 µM), 0.588; in assay [4] (first compound 0.3162 µM) it was 0.743; in assay [4] (first compound 1 µM), 0.728; in assay [1] (first compound 0.01 µM) it was 1.04. In addition, the relative viability amounted to 1.06 in assay [1] (first compound 0.03162 µM); 1.22 in assay [1] (first compound 0.1 µM); 1.02 in assay [1] (first compound 1 µM); 0.816 in assay [2] (first compound 0.08 µM); 0.354 in assay [2] (first compound 8 µM).

As for HCC-366, the relative viability amounted to 1.02 in assay [3] (first compound 0.001 µM); 0.98 in assay [3] (first compound 0.003162 µM); 0.956 in assay [3] (first compound 0.01 µM); 1.03 in assay [3] (first compound 0.03162 µM); 0.0374 in assay [3] (first compound 0.1 µM); 0.101 in assay [4] (first compound 0.01 µM). In addition, the relative viability in assay [4] (first compound 0.03162 µM) is 0.141; in assay [4] (first compound 0.1 µM), 0.183; in assay [4] (first compound 0.3162 µM), 0.11; in assay [4] (first compound 1 µM), 0.17; in assay [1] (first compound 0.01 µM), 0.336; in assay [1] (first compound 0.03162 µM), 0.423. Further, the relative viability in assay [1] (first compound 0.1 µM) was found to be 0.31; in assay [1] (first compound 1 µM) it was 0.403.

IA-LM: the relative viability amounted to 0.851 in assay [3] (first compound 0.001 µM); 0.815 in assay [3] (first compound 0.003162 µM); 0.879 in assay [3] (first compound 0.01 µM); 0.0554 in assay [3] (first compound 0.03162 µM); 0.01 in assay [3] (first compound 0.1 µM); 0.34 in assay [4] (first compound 0.01 µM). Besides, the relative viability in assay [4] (first compound 0.03162 µM) worked out at 0.331; in assay [4] (first compound 0.1 µM), 0.353; in assay [4] (first compound 0.3162 µM), 0.343; in assay [4] (first compound 1 µM) it was 0.305; in assay [1] (first compound 0.01 µM), 0.977; in assay [1] (first compound 0.03162 µM), 0.958. Further, the relative viability in assay [1] (first compound 0.1 µM) was determined as 1.07; in assay [1] (first compound 0.3162 µM), 0.949; in assay [1] (first compound 1 µM), 0.907.

For the cell line HCC-78, the relative viability in assay [3] (first compound 0.001 µM) amounted to 0.546; in assay [3] (first compound 0.003162 µM) it was 0.925; in assay [3] (first compound 0.01 µM), 0.748; in assay [3] (first compound 0.03162 µM), 0.503; in assay [3] (first compound 0.1 µM), 0.179; in assay [4] (first compound 0.01 µM), 0.204. The relative viability in assay [4] (first compound 0.03162 µM) was found to be 0.206; in assay [4] (first compound 0.1 µM), 0.205; in assay [4] (first compound 0.3162 µM), 0.167; in assay [4] (first compound 1 µM), 0.204; in assay [1] (first compound 0.01 µM) it was 0.418; in assay [1] (first compound 0.03162 µM), 0.388. The relative viability in assay [1] (first compound 0.1 µM) turned out to be 0.402; in assay [1] (first compound 0.3162 µM), 0.336; in assay [1] (first compound 1 µM), 0.437.

In the case of EBC-1, the relative viability was determined as 0.415 in assay [3] (first compound 0.001 µM); 0.288 in assay [3] (first compound 0.003162 µM); 0.184 in assay [3] (first compound 0.01 µM); 0.13 in assay [3] (first compound 0.03162 µM); 0.139 in assay [3] (first compound 0.1 µM); 0.378 in assay [4] (first compound 0.01 µM). Moreover, the relative viability in assay [4] (first compound 0.03162 µM) worked out at 0.215; in assay [4] (first compound 0.1 µM) it was 0.159; in assay [4] (first compound 0.3162 µM) it was 0.202; in assay [4] (first compound 1 µM), 0.198.

For the cell line NCI-H1703, the relative viability was determined as 1.13 in assay [3] (first compound 0.001 µM); 1.17 in assay [3] (first compound 0.003162 µM); 0.164 in assay [3] (first compound 0.01 µM); 0.151 in assay [3] (first compound 0.03162 µM); 0.102 in assay [3] (first compound 0.1 µM); 0.286 in assay [4] (first compound 0.01 µM). Also, the relative viability in assay [4] (first compound 0.03162 µM) worked out at 0.224; in assay [4] (first compound 0.1 µM), 0.236; in assay [4] (first compound 0.3162 µM), 0.273; in assay [4] (first compound 1 µM), 0.284.
